From PubChem BioAssay (NCI)
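Method: 48-hour compound exposure of cells in 96-well plates, five concentrations, linear interpolation of endpoints. GI50 is the concentration that inhibits growth by half. Definition used: TGI = concentration required for complete inhibition of growth.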

Columns and labels:
Test in all cases: DTP human tumour cell line panel, 48 h
SR leukemia = system: SR leukemia
OVCAR-4 ovarian = system: OVCAR-4 ovarian
U251 CNS = system: U251 CNS
SF-539 CNS = system: SF-539 CNS
HS 578T breast = system: HS 578T breast
K-562 leukemia = system: K-562 leukemia
CAKI-1 renal = system: CAKI-1 renal
SK-MEL-28 melanoma = system: SK-MEL-28 melanoma
SNB-75 CNS = system: SNB-75 CNS
SK-MEL-2 melanoma = system: SK-MEL-2 melanoma
MDA-MB-231 breast = system: MDA-MB-231 breast
PC-3 prostate = system: PC-3 prostate
NCI-H522 lung = system: NCI-H522 lung
HOP-62 NSCLC = system: HOP-62 NSCLC
DU-145 prostate = system: DU-145 prostate
BT-549 breast = system: BT-549 breast
HCT-116 colon = system: HCT-116 colon
NCI-H226 lung = system: NCI-H226 lung
SK-MEL-5 melanoma = system: SK-MEL-5 melanoma
SF-268 CNS = system: SF-268 CNS
OVCAR-3 ovarian = system: OVCAR-3 ovarian
OVCAR-8 ovarian = system: OVCAR-8 ovarian
SF-295 CNS = system: SF-295 CNS
UACC-257 melanoma = system: UACC-257 melanoma
HCC-2998 colon = system: HCC-2998 colon
SW-620 colon = system: SW-620 colon
UACC-62 melanoma = system: UACC-62 melanoma
ACHN renal = system: ACHN renal
NCI-H23 lung = system: NCI-H23 lung
NCI/ADR-RES ovarian = system: NCI/ADR-RES ovarian
NCI-H460 lung = system: NCI-H460 lung
RXF 393 renal = system: RXF 393 renal
HT29 colon = system: HT29 colon
SNB-19 CNS = system: SNB-19 CNS
KM12 colon = system: KM12 colon
SN12C renal = system: SN12C renal
HL-60(TB) leukemia = system: HL-60(TB) leukemia
M14 melanoma = system: M14 melanoma
SK-OV-3 ovarian = system: SK-OV-3 ovarian
T-47D breast = system: T-47D breast
MDA-MB-435 = system: MDA-MB-435
A549 NSCLC = system: A549 NSCLC
TK-10 renal = system: TK-10 renal
A498 renal = system: A498 renal
UO-31 renal = system: UO-31 renal
786-0 renal = system: 786-0 renal
MDA-N = system: MDA-N
RPMI-8226 leukemia = system: RPMI-8226 leukemia
EKVX NSCLC = system: EKVX NSCLC
LOX IMVI melanoma = system: LOX IMVI melanoma
MOLT-4 leukemia = system: MOLT-4 leukemia
CCRF-CEM leukemia = system: CCRF-CEM leukemia
HCT-15 colon = system: HCT-15 colon
MALME-3M melanoma = system: MALME-3M melanoma
OVCAR-5 ovarian = system: OVCAR-5 ovarian
MCF7 breast = system: MCF7 breast
COLO 205 colon = system: COLO 205 colon

CCc1c2c(nc3cc4c(cc13)OCO4)-c1cc3c(c(=O)n1C2)COC(=O)[C@@]3(CC)OC(=O)CN
GI50 (SR leukemia): < 10 nM | TGI (SR leukemia): < 38.9 nM | GI50 (OVCAR-4 ovarian): 24.4 nM | TGI (OVCAR-4 ovarian): 711 nM | GI50 (U251 CNS): < 10 nM | TGI (U251 CNS): 124 nM | GI50 (SF-539 CNS): < 10 nM | TGI (SF-539 CNS): < 10 nM | GI50 (HS 578T breast): 130 nM | GI50 (K-562 leukemia): < 10 nM | TGI (K-562 leukemia): 5650 nM | GI50 (CAKI-1 renal): < 10 nM | GI50 (SK-MEL-28 melanoma): 101 nM | GI50 (SNB-75 CNS): < 10 nM | TGI (SNB-75 CNS): < 45 nM | GI50 (SK-MEL-2 melanoma): 95.4 nM | TGI (SK-MEL-2 melanoma): 998 nM | GI50 (MDA-MB-231 breast): 195 nM | TGI (MDA-MB-231 breast): 15000 nM | GI50 (PC-3 prostate): < 10 nM | TGI (PC-3 prostate): > 35500 nM | GI50 (NCI-H522 lung): < 10 nM | TGI (NCI-H522 lung): 239 nM | GI50 (HOP-62 NSCLC): < 10 nM | TGI (HOP-62 NSCLC): < 10 nM | GI50 (DU-145 prostate): < 10 nM | TGI (DU-145 prostate): 42.6 nM | GI50 (BT-549 breast): < 10 nM | TGI (BT-549 breast): < 36.6 nM | GI50 (HCT-116 colon): 21.4 nM | TGI (HCT-116 colon): 66.6 nM | GI50 (NCI-H226 lung): < 10 nM | TGI (NCI-H226 lung): < 10 nM | GI50 (SK-MEL-5 melanoma): < 10 nM | TGI (SK-MEL-5 melanoma): 37 nM | GI50 (SF-268 CNS): < 10 nM | GI50 (OVCAR-3 ovarian): < 10 nM | TGI (OVCAR-3 ovarian): 315 nM | GI50 (OVCAR-8 ovarian): < 10 nM | TGI (OVCAR-8 ovarian): 131 nM | GI50 (SF-295 CNS): < 10 nM | TGI (SF-295 CNS): < 16.6 nM | GI50 (UACC-257 melanoma): < 15.4 nM | TGI (UACC-257 melanoma): 286 nM | GI50 (HCC-2998 colon): < 11.2 nM | TGI (HCC-2998 colon): 194 nM | GI50 (SW-620 colon): < 13 nM | GI50 (UACC-62 melanoma): < 22 nM | GI50 (ACHN renal): < 10 nM | TGI (ACHN renal): < 10 nM | GI50 (NCI-H23 lung): < 10 nM | TGI (NCI-H23 lung): < 15.8 nM | GI50 (NCI/ADR-RES ovarian): < 10 nM | TGI (NCI/ADR-RES ovarian): < 10.4 nM | GI50 (NCI-H460 lung): < 10 nM | TGI (NCI-H460 lung): < 10 nM | GI50 (RXF 393 renal): < 10 nM | TGI (RXF 393 renal): < 32.4 nM | GI50 (HT29 colon): < 10 nM | TGI (HT29 colon): 3830 nM | GI50 (SNB-19 CNS): < 10 nM | GI50 (KM12 colon): < 14.3 nM | TGI (KM12 colon): 309 nM | GI50 (SN12C renal): < 10 nM | TGI (SN12C renal): 34 nM | GI50 (HL-60(TB) leukemia): < 10 nM | TGI (HL-60(TB) leukemia): < 10 nM | GI50 (M14 melanoma): < 10 nM | TGI (M14 melanoma): < 24.7 nM | GI50 (SK-OV-3 ovarian): < 10 nM | TGI (SK-OV-3 ovarian): < 18.5 nM | GI50 (T-47D breast): < 10 nM | TGI (T-47D breast): 512 nM | GI50 (MDA-MB-435): < 10 nM | TGI (MDA-MB-435): 1230 nM | GI50 (A549 NSCLC): < 10 nM | TGI (A549 NSCLC): 149 nM | GI50 (TK-10 renal): 178 nM | TGI (TK-10 renal): 20000 nM | GI50 (A498 renal): < 10.7 nM | TGI (A498 renal): 166 nM | GI50 (UO-31 renal): < 10 nM | TGI (UO-31 renal): 79.4 nM | GI50 (786-0 renal): < 10 nM | TGI (786-0 renal): < 12.7 nM | GI50 (MDA-N): < 10 nM | TGI (MDA-N): 2180 nM | GI50 (RPMI-8226 leukemia): < 10 nM | TGI (RPMI-8226 leukemia): 154 nM | GI50 (EKVX NSCLC): 32.1 nM | TGI (EKVX NSCLC): > 100000 nM | GI50 (LOX IMVI melanoma): < 10 nM | TGI (LOX IMVI melanoma): 90.2 nM | GI50 (MOLT-4 leukemia): < 10 nM | TGI (MOLT-4 leukemia): < 10 nM | GI50 (CCRF-CEM leukemia): < 10 nM | TGI (CCRF-CEM leukemia): < 10 nM | GI50 (HCT-15 colon): 23.6 nM | TGI (HCT-15 colon): > 100000 nM | GI50 (MALME-3M melanoma): < 15 nM | TGI (MALME-3M melanoma): 1430 nM | GI50 (OVCAR-5 ovarian): < 10 nM | TGI (OVCAR-5 ovarian): 417 nM | GI50 (MCF7 breast): < 10 nM | TGI (MCF7 breast): < 34.6 nM | GI50 (COLO 205 colon): 133 nM | TGI (COLO 205 colon): 1130 nM
